pIC50: −log10 of the molar value. Values belong to the compound of their own block, whether it stands above or below them.
Tests used:
NCI/ADR-RES = assay: Cytotoxicity against human NCI/ADR-RES cells assessed as growth inhibition by trypan blue exclusion assay; assay type: functional, cell-based
Tubulin (Homo sapiens) = Tubulin (Homo sapiens) (UniProt P68371+Q9H4B7+P0DPH7+P68366+Q13509+Q71U36+P04350+Q3ZCM7+P07437+P68363+Q9BQE3+Q6PEY2+Q13885+Q9BVA1+Q9BUF5); assay: Displacement of [3H]colchicine from tubulin (unknown origin) at 5 uM after 10 mins by DEAE-cellulose filter method; assay type: protein-complex assay
CYP3A4 = CYP3A4 (Homo sapiens, UniProt P08684); assay: Inhibition of human CYP3A4 at 1 uM; assay type: ADME
CYP3A4, sequence (P08684 whole entry): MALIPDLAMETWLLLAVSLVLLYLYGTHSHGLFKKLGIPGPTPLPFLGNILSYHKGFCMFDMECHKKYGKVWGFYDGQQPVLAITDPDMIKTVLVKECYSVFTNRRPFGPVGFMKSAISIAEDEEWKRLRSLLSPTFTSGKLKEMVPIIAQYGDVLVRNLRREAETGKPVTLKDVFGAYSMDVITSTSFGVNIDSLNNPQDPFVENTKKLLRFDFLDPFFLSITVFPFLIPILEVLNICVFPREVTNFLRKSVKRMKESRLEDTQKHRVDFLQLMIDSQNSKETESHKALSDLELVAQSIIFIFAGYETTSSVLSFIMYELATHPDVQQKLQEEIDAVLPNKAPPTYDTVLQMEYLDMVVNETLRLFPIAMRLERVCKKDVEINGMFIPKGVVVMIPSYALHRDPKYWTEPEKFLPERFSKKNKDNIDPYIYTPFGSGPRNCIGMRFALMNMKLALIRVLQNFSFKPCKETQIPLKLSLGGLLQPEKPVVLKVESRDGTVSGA

CYP2C9 = CYP2C9 (Homo sapiens, UniProt P11712); assay: Inhibition of human CYP2C9 at 1 uM; assay type: ADME
CYP2C9, sequence (P11712 whole entry): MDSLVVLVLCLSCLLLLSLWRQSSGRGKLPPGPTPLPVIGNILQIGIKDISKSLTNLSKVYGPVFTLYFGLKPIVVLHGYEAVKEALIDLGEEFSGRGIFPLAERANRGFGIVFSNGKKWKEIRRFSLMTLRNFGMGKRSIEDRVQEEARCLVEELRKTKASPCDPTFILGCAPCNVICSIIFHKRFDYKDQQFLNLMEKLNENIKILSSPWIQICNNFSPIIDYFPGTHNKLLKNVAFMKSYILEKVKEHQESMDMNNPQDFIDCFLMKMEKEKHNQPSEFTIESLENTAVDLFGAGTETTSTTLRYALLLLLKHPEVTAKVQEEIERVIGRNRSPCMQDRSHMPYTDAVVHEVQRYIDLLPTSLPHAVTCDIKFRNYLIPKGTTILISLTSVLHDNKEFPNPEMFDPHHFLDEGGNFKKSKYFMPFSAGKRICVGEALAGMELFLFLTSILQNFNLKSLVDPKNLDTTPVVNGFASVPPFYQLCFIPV

CYP2C19 = CYP2C19 (Homo sapiens, UniProt P33261); assay: Inhibition of human CYP2C19 at 1 uM; assay type: ADME
CYP2C19, sequence (P33261 whole entry): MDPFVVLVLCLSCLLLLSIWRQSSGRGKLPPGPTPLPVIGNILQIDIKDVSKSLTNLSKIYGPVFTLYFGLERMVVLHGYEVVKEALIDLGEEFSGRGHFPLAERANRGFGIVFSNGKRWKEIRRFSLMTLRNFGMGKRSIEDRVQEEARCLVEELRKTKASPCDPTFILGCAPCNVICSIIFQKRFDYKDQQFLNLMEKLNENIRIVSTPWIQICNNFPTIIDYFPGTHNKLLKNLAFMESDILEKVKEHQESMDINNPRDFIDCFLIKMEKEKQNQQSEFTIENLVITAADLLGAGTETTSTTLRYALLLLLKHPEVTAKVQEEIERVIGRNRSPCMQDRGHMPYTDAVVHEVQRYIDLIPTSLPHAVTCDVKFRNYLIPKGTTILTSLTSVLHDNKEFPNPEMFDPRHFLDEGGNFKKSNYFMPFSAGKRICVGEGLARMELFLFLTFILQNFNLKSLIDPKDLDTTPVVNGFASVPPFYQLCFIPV

CYP1A2 = target: T1, CYP1A2 (Homo sapiens, UniProt P05177); assay: Inhibition of human CYP1A2 at 1 uM; assay type: ADME
T1 sequence (P05177 whole entry): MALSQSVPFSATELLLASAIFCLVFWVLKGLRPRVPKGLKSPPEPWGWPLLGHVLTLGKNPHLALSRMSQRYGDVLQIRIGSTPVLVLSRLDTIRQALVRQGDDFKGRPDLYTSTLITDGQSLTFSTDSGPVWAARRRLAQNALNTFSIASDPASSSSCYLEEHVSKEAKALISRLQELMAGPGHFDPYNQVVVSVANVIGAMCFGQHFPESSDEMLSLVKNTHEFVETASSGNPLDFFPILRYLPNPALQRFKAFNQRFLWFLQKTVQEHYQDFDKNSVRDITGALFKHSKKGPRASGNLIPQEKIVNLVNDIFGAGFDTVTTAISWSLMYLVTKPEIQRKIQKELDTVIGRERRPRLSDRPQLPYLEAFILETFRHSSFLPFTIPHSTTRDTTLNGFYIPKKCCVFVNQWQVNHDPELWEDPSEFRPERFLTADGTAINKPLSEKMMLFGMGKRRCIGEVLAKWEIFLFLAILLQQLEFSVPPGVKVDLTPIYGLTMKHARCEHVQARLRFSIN

CYP2D6 = CYP2D6 (Homo sapiens, UniProt P10635); assay: Inhibition of human CYP2D6 at 1 uM; assay type: ADME
CYP2D6, sequence (P10635 whole entry): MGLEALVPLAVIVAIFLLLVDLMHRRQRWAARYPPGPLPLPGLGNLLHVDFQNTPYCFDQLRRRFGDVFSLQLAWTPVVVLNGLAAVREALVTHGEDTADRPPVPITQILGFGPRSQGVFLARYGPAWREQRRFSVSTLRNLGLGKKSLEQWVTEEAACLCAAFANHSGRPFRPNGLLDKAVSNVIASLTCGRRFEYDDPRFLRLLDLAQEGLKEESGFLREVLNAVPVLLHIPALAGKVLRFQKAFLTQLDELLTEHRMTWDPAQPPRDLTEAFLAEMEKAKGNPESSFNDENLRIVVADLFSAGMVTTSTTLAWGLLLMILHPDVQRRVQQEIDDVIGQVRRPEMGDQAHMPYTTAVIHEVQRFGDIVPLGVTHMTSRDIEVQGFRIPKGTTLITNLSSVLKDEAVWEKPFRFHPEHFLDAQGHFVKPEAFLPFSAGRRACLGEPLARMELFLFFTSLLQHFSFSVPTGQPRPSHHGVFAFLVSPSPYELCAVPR

HCT-15 = assay: cells; settings: Homo sapiens, HCT-15, 72 h
Description: Cytotoxicity against human HCT15 cells assessed as growth inhibition after 72 hrs by Celltiter-Glo luminescent assay

[1] = Cytotoxicity against human MESSA/DX5 cells assessed as growth inhibition after 72 hrs by Celltiter-Glo luminescent assay; assay type: functional, cell-based; settings: MES-SA/Dx5, 72 h
A549 = assay: cells; settings: Homo sapiens, A549, 48 h
Description: Cytotoxicity against human A549 cells assessed as growth inhibition after 48 hrs by MTT assay

HCT-116 = assay: cells; settings: Homo sapiens, HCT-116, 72 h
Description: Cytotoxicity against human HCT116 assessed as growth inhibition after 72 hrs by Celltiter-Glo luminescent assay

HeLa = assay: cells; settings: Homo sapiens, 48 h
Description: Cytotoxicity against human HeLa cells assessed as growth inhibition after 48 hrs by MTT assay

HT-29 = assay: cells; settings: Homo sapiens, HT-29, 48 h
Description: Cytotoxicity against human HT-29 cells assessed as growth inhibition after 48 hrs by MTT assay

U-87 MG = assay: Induction of apoptosis in human U87MG assessed as reduction in mitochondrial membrane potential at 30 uM after 24 hrs by JC-1 staining-based fluorescence microscopy; assay type: functional, U-87MG ATCC; parameters: scale not given: the % may be the effect or the level left

SMILES: CCC1=C[C@@H]2CN(C1)Cc1c([nH]c3ccccc13)[C@@](C(=O)OC)(c1cc3c(cc1OC)N(C)[C@H]1[C@@](O)(C(=O)OC)[C@H](OC(C)=O)[C@]4(CC)C=CCN5CC[C@]31[C@@H]54)C2 [VINORELBINE]
pIC50 (NCI/ADR-RES): 5.30

SMILES: COc1cc(Sc2c(-c3cccnc3)[nH]c3ccccc23)cc(OC)c1OC
inhibition at 1 µM (CYP3A4): 76.4%
inhibition (Tubulin (Homo sapiens)): 88%
inhibition at 1 µM (CYP2C9): 102%
inhibition at 1 µM (CYP2C19): 84.9%
inhibition at 1 µM (CYP1A2): 23.4%

SMILES: COc1cc(Sc2c(-c3cc[nH]n3)[nH]c3ccccc23)cc(OC)c1OC
inhibition (Tubulin (Homo sapiens)): 78%

SMILES: COc1cc(Sc2c(-c3cn[nH]c3)[nH]c3ccccc23)cc(OC)c1OC
inhibition (Tubulin (Homo sapiens)): 81%

SMILES: COc1cc(C(=O)c2c(-c3cc[nH]c3)[nH]c3ccccc23)cc(OC)c1OC
inhibition (Tubulin (Homo sapiens)): 71%

SMILES: COc1cc(Sc2c(-c3nccs3)[nH]c3ccccc23)cc(OC)c1OC
inhibition (Tubulin (Homo sapiens)): 72%

SMILES: CC[C@]1(O)C[C@@H]2CN(CCc3c([nH]c4ccccc34)[C@@](C(=O)OC)(c3cc4c(cc3OC)N(C)[C@H]3[C@@](O)(C(=O)OC)[C@H](OC(C)=O)[C@]5(CC)C=CCN6CC[C@]43[C@@H]65)C2)C1 [VINBLASTINE]
pIC50 [1]: 6.84
pIC50 (A549): 7.70
pIC50 (HCT-15): 7.62
pIC50 (HCT-116): 8.52
pIC50 (HeLa): 8.00
pIC50 (HT-29): 7.52

SMILES: N#CC(C#N)=NNc1cccc(Cl)c1 [CARBONYL CYANIDE M-CHLOROPHENYLHYDRAZONE]
Activity (U-87 MG): 50%

SMILES: COc1cc(Sc2c(-c3ccncc3)[nH]c3ccccc23)cc(OC)c1OC
inhibition at 1 µM (CYP3A4): 58%
inhibition (Tubulin (Homo sapiens)): 91%
inhibition at 1 µM (CYP2C9): 100%
inhibition at 1 µM (CYP2D6): 43.1%
inhibition at 1 µM (CYP2C19): 100%
inhibition at 1 µM (CYP1A2): 14.5%

SMILES: COc1cc(Sc2c(-n3ccnc3)[nH]c3ccccc23)cc(OC)c1OC
inhibition at 1 µM (CYP3A4): 94.5%
inhibition (Tubulin (Homo sapiens)): 92%
inhibition at 1 µM (CYP2C9): 95.9%
inhibition at 1 µM (CYP2D6): 10.6%
inhibition at 1 µM (CYP2C19): 82.5%
inhibition at 1 µM (CYP1A2): 22.9%

SMILES: COc1cc(Sc2c(-c3ccc(F)cc3)[nH]c3ccccc23)cc(OC)c1OC
inhibition (Tubulin (Homo sapiens)): 74%

SMILES: COc1cc(C(=O)c2c(-c3ccoc3)[nH]c3ccccc23)cc(OC)c1OC
inhibition (Tubulin (Homo sapiens)): 77%

SMILES: COc1cc(Sc2c(-c3cccc(F)c3)[nH]c3ccccc23)cc(OC)c1OC
inhibition (Tubulin (Homo sapiens)): 75%

Second part, the compound after the results:

inhibition (Tubulin (Homo sapiens)): 79%
SMILES: COc1cc(C(=O)c2c(-c3ccc[nH]3)[nH]c3ccccc23)cc(OC)c1OC

inhibition at 1 µM (CYP3A4): 51.4%
inhibition (Tubulin (Homo sapiens)): 83%
inhibition at 1 µM (CYP2C9): 93.1%
inhibition at 1 µM (CYP2D6): < 5%
inhibition at 1 µM (CYP2C19): 83.9%
inhibition at 1 µM (CYP1A2): < 5%
SMILES: COc1cc(Sc2c(-n3cncn3)[nH]c3ccccc23)cc(OC)c1OC

pIC50 (HCT-15): 7.05
SMILES: CC(=O)O[C@H]1C(=O)[C@@]2(C)[C@H]([C@H](OC(=O)c3ccccc3)[C@]3(O)C[C@H](OC(=O)[C@H](O)[C@@H](NC(=O)c4ccccc4)c4ccccc4)C(C)=C1C3(C)C)[C@]1(OC(C)=O)CO[C@@H]1C[C@@H]2O [PACLITAXEL]

inhibition (Tubulin (Homo sapiens)): 74%
SMILES: COc1cc(Sc2c(-c3ccccc3F)[nH]c3ccccc23)cc(OC)c1OC

inhibition (Tubulin (Homo sapiens)): 78%
SMILES: COc1cc(C(=O)c2c(-c3ccco3)[nH]c3ccccc23)cc(OC)c1OC

inhibition (Tubulin (Homo sapiens)): 70%
SMILES: COc1cc(C(O)c2c(-c3cc[nH]c3)[nH]c3ccccc23)cc(OC)c1OC (stereo not drawn)

From ChEMBL document CHEMBL2311402 (J Med Chem, 2013)
